Reference: patent US9023843B2, “Antimicrobial compounds and methods of making and using the same” (Melinta Therapeutics, Inc., priority 2009, dated 2015)

System: Eschericia coli strain ATCC25922
Experiment: standard microdilution assay to determine minimum inhibitory concentrations (MICs)
Assay type: cell-based
Conditions: Escherichia coli, read-out: E. coli ATCC25922 MIC
Protocol: Minimum inhibitory concentrations (MICs) are determined by the microdilution method, typically in a final volume of 100 microliters, according to protocols outlined by The Clinical and Laboratory Standards Institute [CLSI; formerly the National Committee for Clinical Laboratory Standards (NCCLS)]. See CLSI: Methods for dilution antimicrobial susceptibility tests for bacteria that grow aerobically; approved standard-fifth edition. Wayne, Pa.: NCCLS; 2000. The assays can be also be performed in microtiter trays according to conventional methodologies as published by the CLSI. See CLSI. Methods for Dilution Antimicrobial Susceptibility Tests for Bacteria That Grow Aerobically; Approved Standard-Seventh Edition. CLSI Document M7-A7 [ISBN 1-56238-587-9] CLSI, 940 West Valley Road, Suite 1400, Wayne Pa. 19087-1898 USA, 2006).
The compounds of the present invention were tested for antimicrobial activity. The compounds were run against Eschericia coli strain ATCC25922 using a standard microdilution assay to determine minimum inhibitory concentrations (MICs). […] A “N/A” means that data is unavailable. It will be recognized by one skilled in the art that the compounds can be assessed against other bacterial organisms and that the presentation of data for activity against Eschericia coli is illustrative and in no way is intended to limit the scope of the present invention. The compounds of the present invention can be assayed against a range of other microorganisms depending upon the performance activity desired to be gathered. Furthermore, the “+”, “−”, and “N/A” representation and the selection of a cutoff value of 16 micrograms/ml is also illustrative and in no way is intended to limit the scope of the present invention.

`N=C(N)NCCCN1CCC(n2cc3c(nc2=O)Nc2cc(C(=O)NCCc4ccc(F)cc4)ccc2O3)CC1` [Compound 659] was tested, and the MIC was > 16 µg/mL.

In the case of `NCCCCCN1CC[C@@H](n2cc3c(nc2=O)Nc2ccccc2O3)C1` [Compound 543], the MIC is reported as > 16 µg/mL.

In the case of `NC1CCC(n2cc3c(nc2=O)Nc2cc(CC(=O)NCCCN4CCNCC4)ccc2O3)CC1` (stereo not drawn) [Compound 903], the MIC is reported as > 16 µg/mL.

`N=C(N)NCCCN1CCCC(n2cc3c(nc2=O)Nc2cc(C(=O)N4CCC[C@H](N)C4)ccc2O3)CC1` (stereo partly drawn) [Compound 950] was tested, and the MIC was < 16 µg/mL.

With `N=C(N)NCCCNC(=O)[C@H]1CC[C@H](n2cc3c(nc2=O)Nc2c(OCCN)cccc2O3)CC1` [Compound 4006c] the MIC was < 16 µg/mL.

In the case of `NCCCNCc1ccc(-c2cn3c(=O)cc(Cc4ccc(F)c(F)c4)[nH]c3nc2=O)cc1` [Compound 411], the MIC is reported as > 16 µg/mL.

`N=C(N)NCCCN[C@H]1CC[C@H](n2cc3c(nc2=O)Nc2c(OCCN)cccc2O3)CC1` [Compound 4004c] was tested, and the MIC was < 16 µg/mL.

With `NCCCNCc1ccc(-c2cn3c(=O)cc(Cc4cc(F)c(F)cc4F)[nH]c3nc2=O)cc1` [Compound 469] the MIC was > 16 µg/mL.

With `N=C(N)NCCCN1CCC(n2cc3c(nc2=O)Nc2cc(C4CCN(S(=O)(=O)c5cccnc5)CC4)ccc2O3)CC1` [Compound 738] the MIC was > 16 µg/mL.

In the case of `NC[C@H]1CC[C@H](n2cc3c(nc2=O)Nc2c(OCCCCl)cccc2O3)CC1` [Compound 1450], the MIC is reported as > 16 µg/mL.

`CN(C)c1ncc(-c2ccc3c(c2)Nc2nc(=O)n(C4CCN(CCCN)CC4)cc2O3)cn1` [Compound 614] was tested, and the MIC was > 16 µg/mL.

With `NCCS(=O)(=O)NC1CCC(n2cc3c(nc2=O)Nc2cc(C4CCNCC4)ccc2O3)CC1` (stereo not drawn) [Compound 1147] the MIC was > 16 µg/mL.

`N=C(N)NCCCNC(=O)[C@H]1CC[C@H](n2cc3c(nc2=O)Nc2c(CCCN)cccc2O3)CC1` [Compound 4008c] was tested, and the MIC was > 16 µg/mL.

For `NCCCNCc1ccc(-c2cn3c(=O)cc(-c4ccccc4OC(F)(F)F)[nH]c3nc2=O)cc1` [Compound 371], the MIC was > 16 µg/mL.

`CN(C)CC(=O)N1CCC(c2ccc3c(c2)Nc2nc(=O)n(C4CCN(CCCNC(=N)N)CC4)cc2O3)CC1` [Compound 691] was tested, and the MIC was > 16 µg/mL.

With `NC1CCC(n2cc3c(nc2=O)Nc2cc(C4CCN(CC(=O)N(Cc5ccc6[nH]cnc6c5)C5CCNCC5)CC4)ccc2O3)CC1` (stereo not drawn) [Compound 1096] the MIC was > 16 µg/mL.

For `NCCCN(C(=O)CCN)C1CCC(n2cc3c(nc2=O)Nc2cc(C4CCNCC4)ccc2O3)CC1` (stereo not drawn) [Compound 1146], the MIC was < 16 µg/mL.

For `NC[C@H]1CC[C@H](n2cc3c(nc2=O)Nc2c(OCCCN4CCNCC4)cccc2O3)CC1` [Compound 1441], the MIC was > 16 µg/mL.

With `Cc1ccc(CCCNC2CCC(n3cc4c(nc3=O)Nc3cc(C5CCNCC5)ccc3O4)CC2)o1` (stereo not drawn) [Compound 1197] the MIC was > 16 µg/mL.

In the case of `O=C(NCCCN1CCNCC1)c1ccc2c(c1)Nc1nc(=O)n(C3CCCNCC3)cc1O2` (stereo not drawn) [Compound 890], the MIC is reported as > 16 µg/mL.

For `NCCCN1CC=C(c2cnc3n(CCCN)c(-c4ccc(F)cc4)cn3c2=O)CC1` [Compound 568], the MIC was > 16 µg/mL.

For `NCCCNCc1ccc(-c2cn3c(=O)cc(Cc4ccc(Cl)c(Cl)c4)[nH]c3nc2=O)cc1` [Compound 430], the MIC was > 16 µg/mL.

In the case of `NCCCNC1CCC(n2cc3c(nc2=O)Nc2cc(C(=O)NCCCN4CCNCC4)ccc2O3)CC1` (stereo not drawn) [Compound 731], the MIC is reported as < 16 µg/mL.

With `O=c1nc2c(cn1C1CCC(NCCCc3cnn[nH]3)CC1)Oc1ccc(C3CCNCC3)cc1N2` (stereo not drawn) [Compound 1212] the MIC was > 16 µg/mL.

For `N=C(N)NCCCN1CCC(n2cc3c(nc2=O)Nc2cc(C4CCN(C(=O)Nc5ccc(F)cc5)CC4)ccc2O3)CC1` [Compound 733], the MIC was > 16 µg/mL.

`N=C(N)NCCCN1CCCC(n2cc3c(nc2=O)Nc2ccccc2O3)CC1` (stereo not drawn) [Compound 603] was tested, and the MIC was < 16 µg/mL.

`NCCCNCc1ccc(-n2cc3c(nc2=O)Nc2ccc(CCc4ccc(F)cc4)cc2O3)cc1` [Compound 558] was tested, and the MIC was > 16 µg/mL.

For `NCCCNC(=O)C1CCC(n2cc3c(nc2=O)Nc2cc(C4CCNCC4)ccc2O3)CC1` (stereo not drawn) [Compound 1235], the MIC was < 16 µg/mL.

For `O=c1nc2c(cn1C1CCC(NCCCN3CCNCC3)CC1)Oc1ccc(C3CCNCC3)cc1N2` (stereo not drawn) [Compound 1193], the MIC was > 16 µg/mL.

In the case of `N=C(N)NCCCNC1CCC(n2cc3c(nc2=O)Nc2cc(C(=O)NCCCN4CCOCC4)ccc2O3)CC1` (stereo not drawn) [Compound 781], the MIC is reported as < 16 µg/mL.
